# Active and inactive are the calls of the source. The calls are words filed in the database; no cut-off is given here.
# Columns and labels:
# [1] = system: U-251; assay: Inhibition of PARP1/2-mediated DNA repair in human U-251 cells assessed as increase in […] expression at 1 to 10 uM after 24 hrs in presence of TMZ by Western blot analysis; type: cell-based; details: dose 1-10 µM
# [2] = AUC(0 to t) in Sprague-Dawley rat at 20 mg/kg, po measured upto 24 hrs by LC-MS/MS analysis; type: ADME, organism-based; parameters: time < 24 hrs, dose 20 mg/kg, route po; details: in vivo
# [3] = system: U-251; assay: Inhibition of PARP1/2-mediated DNA repair in human U-251 cells assessed as reduction in PAR formation at 1 to 10 uM after 24 hrs in presence of TMZ by Western blot analysis; type: cell-based; details: dose 1-10 µM
# [4] = system: Mus musculus; assay: Toxicity in BALB/c mouse xenografted with human U-87MG cells assessed as effect on body weight at 25 mg/kg, po administered once daily for 5 days and measured on day 8 in presence of 30 mg/kg TMZ (reference value: 18.8 +/- 0.7 g); type: organism-based; details: in vivo, 192 h, time 8 day
# [5] = MRT(0 to infinity) in Beagle dog at 0.4 mg/kg, iv measured upto 24 hrs by LC-MS/MS analysis; type: ADME, organism-based, Canis lupus familiaris; details: in vivo
# [6] = MRT(0 to infinity) in Beagle dog at 20 mg/kg, po measured upto 24 hrs by LC-MS/MS analysis; type: ADME, organism-based, Canis lupus familiaris; details: in vivo
# [7] = system: A 172; assay: Cytotoxicity against human A172 cells assessed as reduction in cell viability at 5 to 10 uM incubated for 72 hrs in presence of TMZ by MTT assay; type: functional, cell-based; details: dose 5-10 µM
# [8] = system: U-251; assay: Inhibition of PARP1/2-mediated DNA repair in human U-251 cells assessed as reduction in PAR formation at 1 to 10 uM after 24 hrs in absence of TMZ by Western blot analysis; type: cell-based; details: dose 1-10 µM
# [9] = system: MX1; assay: Antitumor activity against human MX1 cells xenografted in athymic nu/nu mouse assessed as tumor growth inhibition at 12.5 mg/kg, po administered once daily for 5 days and measured on day 17 in presence of 50 mg/kg TMZ; type: functional; details: MX1, 408 h, time 17 day, read-out: TGI
# [10] = system: T98G; assay: Inhibition of PARP1/2-mediated DNA repair in human T98G cells assessed as reduction in PAR formation at 1 to 10 uM after 24 hrs in absence of TMZ by Western blot analysis; type: cell-based; details: dose 1-10 µM
# [11] = system: U-87 MG; assay: Antitumor activity against human U-87MG cells xenografted in BALB/c mouse assessed as reduction in tumor volume at 25 mg/kg, po administered once daily for 5 days and measured on day 32 in presence of 30 mg/kg TMZ by MRI scanner; type: functional, U-87MG ATCC; details: time 32 day
# [12] = AUC(0 to infinity) in Sprague-Dawley rat at 20 mg/kg, po measured upto 24 hrs by LC-MS/MS analysis; type: ADME, organism-based; parameters: time < 24 hrs, dose 20 mg/kg, route po; details: in vivo
# [13] = Tmax in Beagle dog at 20 mg/kg, po measured upto 24 hrs by LC-MS/MS analysis; type: ADME, organism-based, Canis lupus familiaris; details: in vivo
# [14] = MRT(0 to t) in Beagle dog at 0.4 mg/kg, iv measured upto 24 hrs by LC-MS/MS analysis; type: ADME, organism-based, Canis lupus familiaris; details: in vivo
# [15] = Tmax in Sprague-Dawley rat at 20 mg/kg, po measured upto 24 hrs by LC-MS/MS analysis; type: ADME, organism-based; details: in vivo
# [16] = AUC(0 to infinity) in Beagle dog at 20 mg/kg, po measured upto 24 hrs by LC-MS/MS analysis; type: ADME, organism-based, Canis lupus familiaris; parameters: dose 20 mg/kg, time < 24 hrs, route po; details: in vivo
# [17] = molecular target: T1, Poly [ADP-ribose] polymerase 2 (Homo sapiens, UniProt Q9UGN5); assay: Inhibition of recombinant human PARP2 using NAD+ as substrate incubated for 1 hr by ELISA
# [18] = system: MX1; assay: Antitumor activity against human MX1 cells xenografted in athymic nu/nu mouse assessed as tumor growth inhibition at 25 mg/kg, po administered once daily for 5 days and measured on day 17 in presence of 50 mg/kg TMZ; type: functional; details: Mus musculus, MX1, 408 h, time 17 day, read-out: TGI
# [19] = MRT(0 to t) in BALB/c mouse at 25 mg/kg, po measured upto 24 hrs by LC-MS/MS analysis; type: ADME, organism-based; details: in vivo
# [20] = system: U-251; assay: Inhibition of PARP1/2-mediated DNA repair in human U-251 cells assessed as increase in […] expression at 1 to 10 uM after 24 hrs in absence of TMZ by Western blot analysis; type: cell-based; details: dose 1-10 µM
# [21] = system: U-87 MG; assay: Antitumor activity against human U-87MG cells xenografted in BALB/c mouse assessed as tumor growth inhibition at 50 mg/kg, po administered once daily for 5 days and measured upto 32 days in presence of 30 mg/kg TMZ by MRI scanner; type: functional, U-87MG ATCC; details: 768 h, time <= 32 day, read-out: TGI
# [22] = Cmax in Sprague-Dawley rat at 20 mg/kg, po measured upto 24 hrs by LC-MS/MS analysis; type: ADME, organism-based; parameters: time < 24 hrs, dose 20 mg/kg, route po; details: in vivo
# [23] = system: MX1; assay: Inhibition of PARP1/2 in human MX1 cells assessed as reduction in PAR formation at 1 to 10 uM after 24 hrs by Western blot analysis; type: cell-based; details: dose 1-10 µM
# [24] = system: Mus musculus; assay: Toxicity in BALB/c mouse xenografted with human U-87MG cells assessed as effect on body weight at 50 mg/kg, po administered once daily for 5 days and measured on day 8 in presence of 30 mg/kg TMZ (reference value: 18.5 +/- 1 g); type: organism-based; details: in vivo, 192 h, time 8 day
# [25] = Cmax in BALB/c mouse at 25 mg/kg, po measured upto 24 hrs by LC-MS/MS analysis; type: ADME, organism-based; parameters: time < 24 hrs, dose 25 mg/kg, route po; details: in vivo
# [26] = system: MDA-MB-436; assay: Antitumor activity against human MDA-MB-436 cells xenografted in po dosed athymic nu/nu mouse assessed as tumor growth inhibition administered once daily for 17 days; type: functional, organism-based; details: time 17.0 day
# [27] = system: Mus musculus; assay: Toxicity in athymic nu/nu mouse xenografted with human MX1 cells assessed as reduction in body weight at 12.5 to 25 mg/kg, po administered once daily for 5 days and measured upto day 17; type: organism-based; details: in vivo, 408 h, dose 12.5-25 mg/kg, time < 17 day
# [28] = molecular target: T1, Poly [ADP-ribose] polymerase 2; assay: Binding affinity to recombinant human PARP2 assessed as dissociation half life by SPR assay
# [29] = AUC(0 to t) in BALB/c mouse at 25 mg/kg, po measured upto 24 hrs by LC-MS/MS analysis; type: ADME, organism-based; parameters: dose 25 mg/kg, time < 24 hrs, route po; details: in vivo
# [30] = MRT(0 to infinity) in BALB/c mouse at 25 mg/kg, po measured upto 24 hrs by LC-MS/MS analysis; type: ADME, organism-based; details: in vivo
# [31] = molecular target: Poly [ADP-ribose] polymerase 1 (Homo sapiens, UniProt P09874); assay: Binding affinity to recombinant human PARP1 assessed as dissociation half life by SPR assay
# [32] = Tmax in BALB/c mouse at 25 mg/kg, po measured upto 24 hrs by LC-MS/MS analysis; type: ADME, organism-based; details: in vivo
# [33] = system: U-87 MG; assay: Cytotoxicity against human U87MG cells assessed as reduction in cell viability at 5 to 10 uM incubated for 72 hrs in presence of TMZ by MTT assay; type: functional, cell-based; details: U-87MG ATCC, dose 5-10 µM
# [34] = system: U-87 MG; assay: Antitumor activity against human U-87MG cells xenografted in BALB/c mouse assessed as reduction in tumor volume at 25 mg/kg, po administered once daily for 5 days and measured on day 8 in presence of 30 mg/kg TMZ by MRI scanner (reference value: 202 +/- 120.4 mm3); type: functional, U-87MG ATCC; details: time 8 day
# T1 sequence (Q9UGN5 whole entry): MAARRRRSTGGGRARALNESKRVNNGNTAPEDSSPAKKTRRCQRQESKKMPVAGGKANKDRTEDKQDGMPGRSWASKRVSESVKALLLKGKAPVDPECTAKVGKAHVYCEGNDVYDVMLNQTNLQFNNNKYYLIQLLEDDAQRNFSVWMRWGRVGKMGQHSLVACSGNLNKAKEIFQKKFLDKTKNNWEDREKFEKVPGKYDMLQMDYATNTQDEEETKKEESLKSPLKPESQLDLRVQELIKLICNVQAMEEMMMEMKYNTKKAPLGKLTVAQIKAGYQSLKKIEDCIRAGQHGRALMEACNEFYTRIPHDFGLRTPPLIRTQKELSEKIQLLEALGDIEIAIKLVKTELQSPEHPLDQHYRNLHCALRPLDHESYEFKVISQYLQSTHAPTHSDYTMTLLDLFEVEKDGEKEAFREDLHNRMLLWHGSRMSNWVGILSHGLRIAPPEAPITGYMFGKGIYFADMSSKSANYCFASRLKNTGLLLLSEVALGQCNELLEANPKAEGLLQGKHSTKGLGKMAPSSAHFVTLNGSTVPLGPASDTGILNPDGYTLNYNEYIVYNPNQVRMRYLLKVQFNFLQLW
# Chain of Poly [ADP-ribose] polymerase 1 (P09874 whole entry): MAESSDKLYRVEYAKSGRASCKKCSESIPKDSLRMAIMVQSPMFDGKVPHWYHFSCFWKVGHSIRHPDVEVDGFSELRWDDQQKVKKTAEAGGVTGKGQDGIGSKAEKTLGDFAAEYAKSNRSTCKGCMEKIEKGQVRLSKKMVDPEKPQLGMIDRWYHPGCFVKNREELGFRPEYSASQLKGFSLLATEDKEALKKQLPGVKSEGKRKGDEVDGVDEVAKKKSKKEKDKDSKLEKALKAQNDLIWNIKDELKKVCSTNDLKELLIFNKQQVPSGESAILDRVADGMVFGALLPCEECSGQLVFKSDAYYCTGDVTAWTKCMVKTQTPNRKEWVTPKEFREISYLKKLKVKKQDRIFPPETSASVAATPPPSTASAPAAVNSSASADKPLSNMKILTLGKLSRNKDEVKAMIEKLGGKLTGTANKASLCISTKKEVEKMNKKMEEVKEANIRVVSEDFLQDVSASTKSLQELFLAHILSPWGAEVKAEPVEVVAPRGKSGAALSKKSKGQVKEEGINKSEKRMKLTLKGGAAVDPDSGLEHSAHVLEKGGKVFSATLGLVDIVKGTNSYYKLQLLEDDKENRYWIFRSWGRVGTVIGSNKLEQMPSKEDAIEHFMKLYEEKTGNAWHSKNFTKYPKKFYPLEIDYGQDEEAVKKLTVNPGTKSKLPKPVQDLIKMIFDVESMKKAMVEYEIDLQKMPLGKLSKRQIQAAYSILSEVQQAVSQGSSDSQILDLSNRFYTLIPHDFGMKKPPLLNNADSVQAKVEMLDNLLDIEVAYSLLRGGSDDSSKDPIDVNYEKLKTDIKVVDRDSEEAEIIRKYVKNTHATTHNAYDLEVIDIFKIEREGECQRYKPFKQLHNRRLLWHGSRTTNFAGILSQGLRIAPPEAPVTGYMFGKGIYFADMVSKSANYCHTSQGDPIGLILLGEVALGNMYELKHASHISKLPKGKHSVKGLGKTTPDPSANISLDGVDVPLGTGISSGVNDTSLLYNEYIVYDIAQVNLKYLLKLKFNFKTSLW
smiles,measurement,setting,value
CC[C@@H]1CN(C(=O)c2cc(Cn3c(=O)[nH]c(=O)c4ccccc43)ccc2F)CCN1CC,inhibition,[1],Active
same,AUC(0-t) at 24 h,[2],330 ng·h/mL
same,inhibition,[3],Active
same,Activity,[4],18.2 g
same,MRT inf,[5],85.8 min
same,MRT inf,[6],291 min
same,Activity,[7],Active
same,inhibition,[8],Active
same,inhibition in vivo at 12.5 mg/kg,[9],71.5%
same,inhibition,[10],Active
same,Activity,[11],10.3 mm3
same,AUC(0-inf),[12],338 ng·h/mL
same,Tmax,[13],30 min
same,MRT last at 24 h,[14],78.6 min
same,Tmax,[15],4.98 min
same,AUC(0-inf),[16],34600 ng·h/mL
same,IC50,[17],23.1 nM
same,inhibition in vivo at 25 mg/kg,[18],86.8%
same,MRT last at 24 h,[19],55.2 min
same,inhibition,[20],Active
same,inhibition in vivo at 50 mg/kg,[21],85.9%
same,Cmax,[22],208 ng/mL
same,inhibition,[23],Active
same,Activity,[24],16.3 g
same,Cmax,[25],399 ng/mL
same,Activity,[26],Dose-dependent effect
same,Activity,[27],Non-Toxic
same,T1/2,[28],5.48 min
same,AUC(0-t) at 24 h,[29],555 ng·h/mL
same,MRT inf,[30],63 min
same,T1/2,[31],75.7 min
same,Tmax,[32],30 min
same,Activity,[33],Active
same,Activity,[34],0 mm3

# Reference: ChEMBL document CHEMBL5053536, “Discovery of Quinazoline-2,4(1H,3H)-dione Derivatives Containing 3-Substituted Piperizines as Potent PARP-1/2 Inhibitors─Design, Synthesis, In Vivo Antitumor Activity, and X-ray Crystal Structure Analysis” (J Med Chem, 2021)
